Assay results from PubChem BioAssay (NCI).
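Results reflect a 48-hour exposure of cells in 96-well plates to compound at five concentrations. The concentration for 50% growth inhibition is given as GI50. TGI marks complete inhibition of growth.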

How the values were obtained:
Test in all cases: NCI-60 cell line screen, 48 h
[1] = tested on: SF-295 CNS
[2] = tested on: UO-31 renal
[3] = tested on: RPMI-8226 leukemia
[4] = tested on: K-562 leukemia
[5] = tested on: NCI-H23 lung
[6] = tested on: A549 NSCLC
[7] = tested on: OVCAR-4 ovarian
[8] = tested on: NCI-H460 lung
[9] = tested on: MDA-MB-435
[10] = tested on: MCF7 breast

## O=C(Nc1cccc(O)c1)C(=O)C1C(=O)NC(=S)NC1=O
[1]
  TGI: > 100 µM
[2]
  TGI: > 100 µM
[3]
  TGI: > 100 µM
[4]
  TGI: > 100 µM
[5]
  TGI: > 100 µM
[6]
  TGI: > 100 µM
[7]
  TGI: > 100 µM

## NC(CCCC(N)P(=O)(O)O)P(=O)(O)O (stereo not drawn)
[1]
  TGI: > 100 µM
[8]
  TGI: > 100 µM
[2]
  TGI: > 100 µM
[3]
  TGI: > 100 µM
[4]
  TGI: > 100 µM
[5]
  TGI: > 100 µM
[6]
  TGI: > 100 µM

## O=C(Nc1ccc(C(F)(F)F)cc1[N+](=O)[O-])C(=O)C1NC(=S)NC1=O (stereo not drawn)
[1]
  TGI: > 100 µM
[8]
  TGI: > 100 µM
[2]
  TGI: > 100 µM
[3]
  TGI: > 100 µM
[4]
  TGI: > 100 µM
[5]
  TGI: > 100 µM
[6]
  TGI: > 100 µM
[7]
  TGI: > 100 µM

## O=S(=O)(C1=CC(S(=O)(=O)c2ccccc2)CN(Cc2ccccc2)C1c1cccc2ccccc12)c1ccccc1 (stereo not drawn)
[1]
  TGI: > 69 µM
[8]
  TGI: > 69 µM
[2]
  TGI: > 69 µM
[3]
  TGI: > 69 µM
[4]
  TGI: > 69 µM
[5]
  TGI: > 69 µM
[6]
  TGI: > 69 µM
[7]
  TGI: > 69 µM

## O=C(NC(=O)c1c(F)cccc1F)Nc1cccc(Oc2ncc(Cl)cn2)c1
[1]
  TGI: > 85 µM
[2]
  TGI: > 100 µM
[3]
  TGI: > 100 µM
[4]
  TGI: > 100 µM
[5]
  TGI: > 100 µM
[6]
  TGI: > 100 µM
[9]
  TGI: > 22.8 µM
[7]
  TGI: > 100 µM
[10]
  TGI: > 100 µM

## CC(=O)C1C(c2ccccc2)C2(C)OC(=O)C(C#N)C12C (stereo not drawn)
[1]
  TGI: > 100 µM
[8]
  TGI: > 100 µM
[2]
  TGI: > 100 µM
[3]
  TGI: > 100 µM
[4]
  TGI: > 100 µM
[5]
  TGI: > 100 µM
[6]
  TGI: > 100 µM
[7]
  TGI: > 100 µM

## CCCCCCCCCCCCCP(=O)(O)O
[1]
  TGI: > 100 µM
[8]
  TGI: > 100 µM
[2]
  TGI: > 100 µM
[5]
  TGI: > 100 µM
[6]
  TGI: > 100 µM
[7]
  TGI: > 100 µM

## COc1cc(NCC(C#N)C#N)ccc1N=Nc1ccc(Cl)cc1
[1]
  TGI: 51.3 µM
[8]
  TGI: 52.9 µM
[2]
  TGI: 52.5 µM
[3]
  TGI: 92.3 µM
[4]
  TGI: 50.5 µM
[5]
  TGI: 65.4 µM
[6]
  TGI: > 100 µM
[7]
  TGI: > 100 µM

## O=C1C=C(Nc2ccccc2C(=O)CC(=O)C(=O)Nc2cccc([N+](=O)[O-])c2)c2ccccc2C1=O
[8]
  TGI: > 100 µM
[2]
  TGI: > 100 µM
[3]
  TGI: 53.6 µM
[4]
  TGI: > 100 µM
[5]
  TGI: > 100 µM
[6]
  TGI: > 100 µM
[7]
  TGI: > 100 µM

## CC(=O)Oc1c(C)c(-c2ccccc2)c(C)c(-c2ccccc2)c1C(=S)c1ccccc1
[1]
  TGI: > 100 µM
[8]
  TGI: > 100 µM
[2]
  TGI: > 100 µM
[3]
  TGI: > 100 µM
[4]
  TGI: > 100 µM
[5]
  TGI: > 100 µM
[6]
  TGI: > 100 µM

## CNC(=O)OCc1c(COC(=O)NC)c(-c2ccc(-c3ccccc3)cc2)n(C)c1C
[1]
  TGI: 10.8 µM
[8]
  TGI: 12.2 µM
[2]
  TGI: 3.1 µM
[5]
  TGI: 10.2 µM
[6]
  TGI: 14.1 µM
[9]
  TGI: 21.9 µM
[7]
  TGI: 10.9 µM
[10]
  TGI: 14.5 µM

## CC(=O)c1ccc(NC(=O)/C(CC(=O)c2sc(-c3cccnc3)nc2C)=N/NC(N)=O)cc1
[1]
  TGI: > 100 µM
[8]
  TGI: > 100 µM
[2]
  TGI: > 100 µM
[3]
  TGI: 54.4 µM
[4]
  TGI: > 100 µM
[6]
  TGI: 71.2 µM
[7]
  TGI: > 100 µM

## CC1(O)C(C)(O)C2(C)O[Te]3(OC12C)OC1(C)C(C)(O)C(C)(O)C1(C)O3 (stereo not drawn)
[1]
  TGI: > 100 µM
[8]
  TGI: 47.9 µM
[2]
  TGI: 87.5 µM
[3]
  TGI: 37.9 µM
[4]
  TGI: 39 µM
[5]
  TGI: 29.7 µM
[6]
  TGI: 79 µM
[7]
  TGI: 77.9 µM

## COc1ccc2c(c1)C(=O)/C(=C/c1cccc(OCC(=O)c3ccccc3)c1)O2
[1]
  GI50: 20 µM
  TGI: 38.1 µM
[8]
  GI50: 14.4 µM
  TGI: 36 µM
[2]
  GI50: 1.59 µM
  TGI: 3.09 µM
[4]
  GI50: 0.722 µM
  TGI: 2.13 µM
[5]
  GI50: 4.37 µM
  TGI: 15.8 µM
[6]
  GI50: 4.93 µM
  TGI: 24.9 µM
[9]
  GI50: 3.4 µM
  TGI: 13.6 µM
[7]
  GI50: 2.72 µM
  TGI: 6.37 µM
[10]
  GI50: 4.2 µM
  TGI: 33.7 µM

## COc1ccc(C=O)cc1O[Si](C)(C)C(C)(C)C
[1]
  TGI: > 100 µM
[8]
  TGI: > 100 µM
[2]
  TGI: > 100 µM
[3]
  TGI: > 100 µM
[4]
  TGI: > 100 µM
[5]
  TGI: > 100 µM
[6]
  TGI: > 100 µM
[7]
  TGI: > 100 µM

## O=C(Nc1ccc(Cl)cc1)C1C(=O)C(=O)N(c2ccc(Cl)cc2)C1=O (stereo not drawn)
[1]
  TGI: > 100 µM
[8]
  TGI: > 100 µM
[2]
  TGI: > 100 µM
[3]
  TGI: > 100 µM
[4]
  TGI: > 100 µM
[5]
  TGI: > 100 µM
[6]
  TGI: > 100 µM

## CCCCCCCCCCCC(=O)OCCOCCOCCOCCOCCOC(=O)CCCCCCCCCCC
[1]
  TGI: > 100 µM
[8]
  TGI: > 100 µM
[2]
  TGI: > 100 µM
[3]
  TGI: > 100 µM
[4]
  TGI: > 100 µM
[5]
  TGI: > 100 µM
[6]
  TGI: > 100 µM
[7]
  TGI: > 100 µM

## O=C1N/C(=C\[N+](=O)[O-])c2ccccc21
[1]
  TGI: > 100 µM
[8]
  TGI: > 100 µM
[2]
  TGI: > 100 µM
[3]
  TGI: > 100 µM
[4]
  TGI: > 100 µM
[5]
  TGI: > 100 µM
[6]
  TGI: > 100 µM
[7]
  TGI: > 100 µM

## COc1cc(Nc2ncccc2C(=O)Nc2nc3ccc(F)cc3s2)cc(OC)c1OC
[1]
  GI50: 2.55 µM
  TGI: > 100 µM
[8]
  GI50: 3.3 µM
  TGI: > 100 µM
[2]
  GI50: 3.37 µM
  TGI: > 100 µM
[5]
  GI50: 2.27 µM
  TGI: > 100 µM
[6]
  GI50: 3.11 µM
  TGI: > 100 µM
[9]
  GI50: 2.87 µM
  TGI: > 100 µM
[7]
  GI50: 2.73 µM
  TGI: > 100 µM
[10]
  GI50: 3.23 µM
  TGI: > 100 µM

## CCCC1(CC(=O)O)OCCc2c1[nH]c1ccccc21 (stereo not drawn)
[1]
  TGI: > 100 µM
[2]
  TGI: > 100 µM
[3]
  TGI: > 100 µM
[4]
  TGI: > 100 µM
[5]
  TGI: > 100 µM
[6]
  TGI: > 100 µM
[7]
  TGI: > 100 µM

## NC1=NN(c2ccccc2)C(=O)C1C(=O)CCC(=O)Nc1cccc(Cl)c1 (stereo not drawn)
[1]
  TGI: > 100 µM
[8]
  TGI: > 100 µM
[2]
  TGI: > 100 µM
[4]
  TGI: > 100 µM
[5]
  TGI: > 100 µM
[6]
  TGI: > 100 µM
[7]
  TGI: > 100 µM

## COCCOC(=O)C1=C(O)c2ccccc2S(=O)(=O)N1C
[1]
  TGI: > 100 µM
[8]
  TGI: > 100 µM
[2]
  TGI: > 100 µM
[3]
  TGI: > 100 µM
[4]
  TGI: > 100 µM
[5]
  TGI: > 100 µM
[6]
  TGI: > 100 µM
[9]
  TGI: > 100 µM
[7]
  TGI: > 100 µM

## C[C@]12CC=CC(=O)[C@@]1(C)CCC(=O)C2
[1]
  TGI: > 100 µM
[8]
  TGI: > 100 µM
[2]
  TGI: > 100 µM
[4]
  TGI: > 100 µM
[5]
  TGI: > 100 µM
[6]
  TGI: > 100 µM
[7]
  TGI: > 100 µM

## N#C/C(=C/c1cccc(Oc2ccccc2)c1)c1ccccc1
[1]
  TGI: > 100 µM
[8]
  TGI: > 100 µM
[2]
  TGI: > 100 µM
[3]
  TGI: > 100 µM
[4]
  TGI: > 100 µM
[5]
  TGI: > 100 µM
[6]
  TGI: > 100 µM
[7]
  TGI: > 100 µM

## Cc1ccc(S(=O)(=O)OC2CC=CC2)cc1
[1]
  TGI: > 100 µM
[8]
  TGI: > 100 µM
[2]
  TGI: > 100 µM
[3]
  TGI: > 100 µM
[4]
  TGI: > 100 µM
[6]
  TGI: > 100 µM
[7]
  TGI: > 100 µM
